Read-outs that look alike come from different tables or passages of the source.

Test in all cases: cells
One assay relates to A-549. To be noted: Homo sapiens, A549, 144 h.
For a further assay, the system named is MCF-7. To be noted: Homo sapiens, MCF7, 144 h, read-out: Lexibulin (CYT997).
For the next assay, the system named is NALM-6. To be noted: Homo sapiens, NALM-6, 144 h.
The next assay deals with HUT-78. The conditions noted are these: Homo sapiens, HuT78, 144 h.
The next assay relates to CCRF-CEM. To be noted: Homo sapiens, CCRF-CEM, 144 h.
In the next assay the test system is MOLM-14. To be noted: Homo sapiens, MOLM-14, 144 h, read-out: Lexibulin (CYT997).
In a further assay the test system is Karpas-299. To be noted: Homo sapiens, KARPAS-299, 144 h.
Another assay concerns PLC-PRF5. To be noted: Homo sapiens, PLC-PRF-5, 144 h.
A further assay deals with PC-3. The conditions noted are these: Homo sapiens, PC-3, 144 h, read-out: Lexibulin (CYT997).
For another assay, the system named is Tov21G. The conditions noted are these: Homo sapiens, TOV21G, 144 h, read-out: Lexibulin (CYT997).
The subject of the next assay is ACHN. The conditions noted are these: Homo sapiens, ACHN, 144 h, read-out: Lexibulin (CYT997).
A further assay has as its system NOMO-1. The conditions noted are these: Homo sapiens, NOMO-1, 144 h, read-out: Lexibulin (CYT997).
In the next assay the test system is U-118. To be noted: 144 h.
The next assay has as its system U87-MG. To be noted: Homo sapiens, U-87 MG, 144 h.
Assay [1] deals with MESSA. To be noted: Homo sapiens, MES-SA, 144 h, read-out: Lexibulin (CYT997).
The next assay deals with H-1299. The conditions noted are these: Homo sapiens, NCI-H1299, 144 h.
The test system of another assay is HGC-27. To be noted: Homo sapiens, HGC-27, 144 h.
A further assay deals with LnCaP. The conditions noted are these: Homo sapiens, LNCaP, 144 h, read-out: Lexibulin (CYT997).
A further assay relates to DU-145. To be noted: Homo sapiens, DU-145, 144 h.
The test system of a further assay is HEP-2. To be noted: Homo sapiens, HEp-2, 144 h.
For another assay, the system named is HRT-18. The conditions noted are these: Homo sapiens, HRT-18, 144 h.
Another assay has as its system MDA-MB-468. To be noted: Homo sapiens, MDA-MB-468, 144 h, read-out: Lexibulin (CYT997).
The next assay concerns PANC-1. The conditions noted are these: Homo sapiens, PANC-1, 144 h.
A further assay concerns HL-60. The conditions noted are these: Homo sapiens, HL-60, 144 h.
Another assay concerns 786-O. To be noted: Homo sapiens, 786-0, 144 h, read-out: Lexibulin (CYT997).
The next assay relates to REC-1. The conditions noted are these: Homo sapiens, Rec1, 144 h.
The test system of another assay is THP-1. The conditions noted are these: Homo sapiens, THP-1, 144 h, read-out: Lexibulin (CYT997).
A further assay deals with SK-N-MC. To be noted: Homo sapiens, SK-N-MC, 144 h, read-out: Unesbulin (PTC-596).
For another assay, the system named is WEHI-164. To be noted: Mus musculus, WEHI-164, 144 h, read-out: Unesbulin (PTC-596).
The test system of a further assay is U2OS. To be noted: Homo sapiens, U2OS, 144 h, read-out: Unesbulin (PTC-596).
In the next assay the test system is A4573. To be noted: A4573, 144 h, read-out: Unesbulin (PTC-596).
Another assay concerns SW-872. The conditions noted are these: Homo sapiens, SW872, 144 h, read-out: Unesbulin (PTC-596).
In another assay the test system is CHRF. Also on record: species or system CMK. To be noted: 72 h, read-out: Doxorubicin (IC50 nM).
The test system of assay [2] is MESSA. Also on record: species or system MES-SA/Mx2. To be noted: Homo sapiens, MES-SA, read-out: MES-SA.
Another assay deals with CMK. More on the design: species or system CHRF. The conditions noted are these: Homo sapiens, 72 h, read-out: Doxorubicin (IC50 nM).

As for `CCC[C@H](Nc1nc(-c2ccc(NC(=O)NCC)c(OC)c2)ncc1C)c1cccnc1` [Lexibulin], the IC50 came out at 21 nM in the assay with A-549 (read-out: Lexibulin (CYT997)); 12 nM in the assay on MCF-7; 9 nM with NALM-6 (read-out: Lexibulin (CYT997)); 6 nM in the assay on HUT-78 (read-out: Lexibulin (CYT997)); 8 nM in the assay with CCRF-CEM (read-out: Lexibulin (CYT997)); 45 nM in the assay on MOLM-14. The IC50 with Karpas-299 (read-out: Lexibulin (CYT997)) stood at 4 nM; with PLC-PRF5 (read-out: Lexibulin (CYT997)) it was 25 nM; in the assay on PC-3, 142 nM; in the assay on Tov21G, 13 nM; with ACHN, 36 nM; with NOMO-1, 280 nM. Also, the IC50 with U-118 (read-out: Lexibulin (CYT997)) turned out to be 13 nM; in the assay on U87-MG (read-out: Lexibulin (CYT997)), 20 nM; in the assay with MESSA [1], 24 nM; in the assay with H-1299 (read-out: Lexibulin (CYT997)) it was 7 nM; in the assay on HGC-27 (read-out: Lexibulin (CYT997)), 8 nM; in the assay with LnCaP, 52 nM. Further, the IC50 in the assay with DU-145 (read-out: Lexibulin (CYT997)) came to 32 nM; in the assay with HEP-2 (read-out: Lexibulin (CYT997)), 16 nM; in the assay with HRT-18 (read-out: Lexibulin (CYT997)) it was 31 nM; in the assay on MDA-MB-468, 685 nM; with PANC-1 (read-out: Lexibulin (CYT997)) it was 13 nM; with HL-60 (read-out: Lexibulin (CYT997)) it was 8 nM. Moreover, the IC50 in the assay on 786-O was 165 nM; with REC-1 (read-out: Lexibulin (CYT997)), 10 nM; in the assay with THP-1, 9 nM.
Regarding `Cc1nc2ccc(F)cc2n1-c1nc(N)c(F)c(Nc2ccc(C(F)(F)F)cc2)n1` [Unesbulin], the IC50 with A-549 (read-out: Unesbulin (PTC-596)) was determined as 13 nM; with NALM-6 (read-out: Unesbulin (PTC-596)) it was 30 nM; in the assay on HUT-78 (read-out: Unesbulin (PTC-596)) it was 20 nM; in the assay with CCRF-CEM (read-out: Unesbulin (PTC-596)), 27 nM; in the assay with Karpas-299 (read-out: Unesbulin (PTC-596)), 34 nM; in the assay with PLC-PRF5 (read-out: Unesbulin (PTC-596)), 25 nM. Also, the IC50 in the assay with U-118 (read-out: Unesbulin (PTC-596)) stood at 33 nM; with SK-N-MC it was 14 nM; in the assay with U87-MG (read-out: Unesbulin (PTC-596)), 11 nM; in the assay on H-1299 (read-out: Unesbulin (PTC-596)), 5 nM; in the assay on WEHI-164 it was 31 nM; in the assay with HGC-27 (read-out: Unesbulin (PTC-596)), 9 nM. The IC50 in the assay on U2OS was found to be 12 nM; in the assay with A4573 it was 21 nM; with DU-145 (read-out: Unesbulin (PTC-596)), 17 nM; in the assay with HEP-2 (read-out: Unesbulin (PTC-596)) it was 10 nM; in the assay on HRT-18 (read-out: Unesbulin (PTC-596)), 11 nM; with PANC-1 (read-out: Unesbulin (PTC-596)), 21 nM. For the same compound, the IC50 in the assay with HL-60 (read-out: Unesbulin (PTC-596)) is 48 nM; in the assay with REC-1 (read-out: Unesbulin (PTC-596)), 17 nM; with SW-872, 18 nM.
Regarding `COc1cccc2c1C(=O)c1c(O)c3c(c(O)c1C2=O)C[C@@](O)(C(=O)CO)C[C@@H]3O[C@H]1C[C@H](N)[C@H](O)[C@H](C)O1` [doxorubicin], the IC50 came to 681 nM in the assay with CHRF, 71 ± 56 nM with MESSA [2] and 844 nM with CMK.
